Data reported in patent publication US20240343704A1, “HALO-SUBSTITUTED AMINO PYRIDINE COMPOUNDS AS INHIBITORS OF THE HAEMATOPOIETIC PROGENITOR KINASE 1 (HPK1)” (priority 2021, published 2024).

How the values were obtained:
[1] = target: T1, Recombinant (1-346) HPK1 (h) (Homo sapiens, UniProt Q92918); test: HPK1 Human STE Kinase Enzymatic Radiometric Assay; type: biochemical; settings: read-out: HPK1 IC50 nM Range*
T1 construct: Recombinant (1-346) HPK1 (h) is incubated with 8 mM MOPS pH 7.0
T1 sequence (Q92918 1-346): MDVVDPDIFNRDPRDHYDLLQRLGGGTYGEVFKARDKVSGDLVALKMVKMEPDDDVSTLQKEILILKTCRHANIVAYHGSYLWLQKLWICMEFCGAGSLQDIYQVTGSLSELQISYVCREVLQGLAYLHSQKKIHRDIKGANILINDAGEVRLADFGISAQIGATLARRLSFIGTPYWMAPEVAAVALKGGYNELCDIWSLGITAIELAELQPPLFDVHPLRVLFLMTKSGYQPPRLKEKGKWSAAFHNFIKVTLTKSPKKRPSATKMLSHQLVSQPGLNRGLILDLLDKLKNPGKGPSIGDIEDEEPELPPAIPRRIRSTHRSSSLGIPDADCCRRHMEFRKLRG
Method: A stock solution of 10 mM of test compound is prepared in DMSO. The compound plate was prepared by 3-fold and 9-point serial dilutions. […] The reaction is initiated by The addition of the Mg/ATP mix. After incubation for 40 minutes at RT, the reaction is stopped by the addition of phosphoric acid to a concentration of 0.5%.

[2] = target: Lck (h) (Homo sapiens, UniProt P06239); test: Lck Human  Kinase Enzymatic Radiometric Assay; type: biochemical; settings: read-out: Lck IC50 nM Range*
Sequence of Lck (h) (P06239 whole entry): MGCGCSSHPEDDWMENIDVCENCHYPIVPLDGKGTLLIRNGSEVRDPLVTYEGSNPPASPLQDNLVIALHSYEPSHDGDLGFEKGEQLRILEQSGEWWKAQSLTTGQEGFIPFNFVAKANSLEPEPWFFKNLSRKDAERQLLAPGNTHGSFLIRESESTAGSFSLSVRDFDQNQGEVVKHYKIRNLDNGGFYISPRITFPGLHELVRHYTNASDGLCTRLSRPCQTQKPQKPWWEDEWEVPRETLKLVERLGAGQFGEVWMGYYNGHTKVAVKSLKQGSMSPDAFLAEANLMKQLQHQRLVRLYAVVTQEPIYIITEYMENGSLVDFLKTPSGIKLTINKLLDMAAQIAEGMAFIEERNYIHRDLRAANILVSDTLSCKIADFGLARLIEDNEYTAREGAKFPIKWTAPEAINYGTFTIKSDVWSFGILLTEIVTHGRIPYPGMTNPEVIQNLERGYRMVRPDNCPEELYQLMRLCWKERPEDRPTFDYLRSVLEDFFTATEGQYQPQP
Outline: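 Substrate 33P-incorporation measured by scintillation counting after spotting on P30 filtermat and phosphoric acid washes. Human Lck reacted 40 min at RT in 50 mM Tris pH 7.5 with 10 mM MgAcetate, [gamma-33P]-ATP, 250 uM Cdc2 peptide, 0.1 mM EGTA and 0.1 mM Na3VO4.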

Structure (SMILES)	IC50 [1] [nM]	IC50 [2] [nM]
CC(C)N1C[C@@H]2C[C@]2(c2ccc(-c3cc(-c4cc5c(cc4F)C(=O)NCC5)c(N)nc3F)cc2)C1 [I-142, 6-(2-amino-6-fluoro-5-(4-((1S,5R)-3-isopropyl-3-azabicyclo[3.1.0]hexan-1-yl)phenyl)pyridin-3-yl)-7-fluoro-3,4-dihydroisoquinolin-1(2H)-one]	0.1 to 10	> 1000
CC(C)C(=O)N1C[C@H]2C[C@@]2(c2ccc(-c3cc(-c4ccc5c(c4)CCNC5=O)c(N)nc3F)cc2)C1 [I-143, 6-(2-amino-6-fluoro-5-(4-((1R,5S)-3-isobutyryl-3-azabicyclo[3.1.0]hexan-1-yl)phenyl)pyridin-3-yl)-3,4-dihydroisoquinolin-1(2H)-one]	0.1 to 10	> 1000
C[C@H]1CC(Oc2ccc(-c3cc(-c4ccc5c(c4)CCNC5=O)c(N)nc3F)cc2)C[C@H](C)N1 (stereo partly drawn) [I-144, 6-(2-amino-5-(4-(((2S,6S)-2,6-dimethylpiperidin-4-yl)oxy)phenyl)-6-fluoropyridin-3-yl)-3,4-dihydroisoquinolin-1(2H)-one]	0.1 to 10	101 to 1000
Nc1nc(F)c(-c2ccc(OC3CCNCC3)c3c2OCO3)cc1-c1ccc2c(c1)CCNC2=O [I-145, 6-(2-amino-6-fluoro-5-(7-(piperidin-4-yloxy)benzo[d][1,3]dioxol-4-yl)pyridin-3-yl)-3,4-dihydroisoquinolin-1(2H)-one]	0.1 to 10	> 1000
Nc1nc(F)c(-c2ccc(OC3CNC3)cc2)cc1-c1ccc2c(c1)CCNC2=O [I-146, 6-(2-amino-5-(4-(azetidin-3-yloxy)phenyl)-6-fluoropyridin-3-yl)-3,4-dihydroisoquinolin-1(2H)-one]	11 to 100	> 1000
CC1(C)CC(Oc2ccc(-c3cc(-c4ccc5c(c4)CCNC5=O)c(N)nc3F)cc2)CCN1 (centres unmarked) [I-147, 6-(2-amino-5-(4-((2,2-dimethylpiperidin-4-yl)oxy)phenyl)-6-fluoropyridin-3-yl)-3,4-dihydroisoquinolin-1(2H)-one]	0.1 to 10	> 1000
Nc1nc(F)c(-c2ccc(OC3CCNCC3)c(F)c2F)cc1-c1ccc2c(c1)CCNC2=O [I-148, 6-(2-amino-5-(2,3-difluoro-4-(piperidin-4-yloxy)phenyl)-6-fluoropyridin-3-yl)-3,4-dihydroisoquinolin-1(2H)-one]	11 to 100	> 1000
Nc1nc(F)c(-c2cc(F)c(OC3CCNCC3)cc2F)cc1-c1ccc2c(c1)CCNC2=O [I-149, 6-(2-amino-5-(2,5-difluoro-4-(piperidin-4-yloxy)phenyl)-6-fluoropyridin-3-yl)-3,4-dihydroisoquinolin-1(2H)-one]	11 to 100	> 1000
COc1cc(OC2CCNCC2)ccc1-c1cc(-c2ccc3c(c2)CCNC3=O)c(N)nc1F [I-150, 6-(2-amino-6-fluoro-5-(2-methoxy-4-(piperidin-4-yloxy)phenyl)pyridin-3-yl)-3,4-dihydroisoquinolin-1(2H)-one]	11 to 100	> 1000
COc1cc(-c2cc(-c3ccc4c(c3)CCNC4=O)c(N)nc2F)ccc1OC1CCNCC1 [I-151, 6-(2-amino-6-fluoro-5-(3-methoxy-4-(piperidin-4-yloxy)phenyl)pyridin-3-yl)-3,4-dihydroisoquinolin-1(2H)-one]	11 to 100	> 1000
Nc1nc(F)c(-c2ccc(C3CCN(C4COC4)CC3)cc2)cc1-c1ccc2c(c1)CCNC2=O [I-152, 6-(2-amino-6-fluoro-5-(4-(1-(oxetan-3-yl)piperidin-4-yl)phenyl)pyridin-3-yl)-3,4-dihydroisoquinolin-1(2H)-one]	0.1 to 10	> 1000
Nc1nc(F)c(-c2ccc(C3CCCCN3C3COC3)cc2)cc1-c1ccc2c(c1)CCNC2=O (centres unmarked) [I-153, 6-(2-amino-6-fluoro-5-(4-(1-(oxetan-3-yl)piperidin-2-yl)phenyl)pyridin-3-yl)-3,4-dihydroisoquinolin-1(2H)-one]	11 to 100	> 1000
Nc1nc(F)c(-c2ccc(C3COCCN3C3COC3)cc2)cc1-c1ccc2c(c1)CCNC2=O (centres unmarked) [I-154, 6-(2-amino-6-fluoro-5-(4-(4-(oxetan-3-yl)morpholin-3-yl)phenyl)pyridin-3-yl)-3,4-dihydroisoquinolin-1(2H)-one]	11 to 100	> 1000
Nc1nc(F)c(-c2ccc(C3=CCN(C4COC4)CC3)cc2)cc1-c1ccc2c(c1)CCNC2=O [I-155, 6-(2-amino-6-fluoro-5-(4-(1-(oxetan-3-yl)-1,2,3,6-tetrahydropyridin-4-yl)phenyl)pyridin-3-yl)-3,4-dihydroisoquinolin-1(2H)-one]	0.1 to 10	> 1000
Nc1nc(F)c(-c2ccc([C@@]34C[C@@H]3CN(C3COC3)C4)cc2)cc1-c1ccc2c(c1)CCNC2=O [I-156, 6-(2-amino-6-fluoro-5-(4-((1R,5S)-3-(oxetan-3-yl)-3-azabicyclo[3.1.0]hexan-1-yl)phenyl)pyridin-3-yl)-3,4-dihydroisoquinolin-1(2H)-one]	0.1 to 10	> 1000
CN(C)C1CCN(c2ccc(-c3cc(-c4ccc5c(c4)CCNC5=O)c(N)nc3F)cc2)C1 (centres unmarked) [I-157, 6-(2-amino-5-(4-(3-(dimethylamino)pyrrolidin-1-yl)phenyl)-6-fluoropyridin-3-yl)-3,4-dihydroisoquinolin-1(2H)-one]	0.1 to 10	> 1000
CCN(C)C1CCN(c2ccc(-c3cc(-c4ccc5c(c4)CCNC5=O)c(N)nc3F)cc2)C1 (centres unmarked) [I-158, 6-(2-amino-5-(4-(3-(ethyl(methyl)amino)pyrrolidin-1-yl)phenyl)-6-fluoropyridin-3-yl)-3,4-dihydroisoquinolin-1(2H)-one]	0.1 to 10	101 to 1000
CN(CC(F)(F)F)C1CCN(c2ccc(-c3cc(-c4ccc5c(c4)CCNC5=O)c(N)nc3F)cc2)C1 (centres unmarked) [I-159, 6-(2-amino-6-fluoro-5-(4-(3-(methyl(2,2,2-trifluoroethyl)amino)pyrrolidin-1-yl)phenyl)pyridin-3-yl)-3,4-dihydroisoquinolin-1(2H)-one]	0.1 to 10	> 1000
COCCN(C)[C@@H]1CCN(c2ccc(-c3cc(-c4ccc5c(c4)CCNC5=O)c(N)nc3F)cc2)C1 [I-160, (R)-6-(2-amino-6-fluoro-5-(4-(3-((2-methoxyethyl)(methyl)amino)pyrrolidin-1-yl)phenyl)pyridin-3-yl)-3,4-dihydroisoquinolin-1(2H)-one]	0.1 to 10	> 1000
CN(CC1CC1)[C@@H]1CCN(c2ccc(-c3cc(-c4ccc5c(c4)CCNC5=O)c(N)nc3F)cc2)C1 [I-161, (R)-6-(2-amino-5-(4-(3-((cyclopropylmethyl)(methyl)amino)pyrrolidin-1-yl)phenyl)-6-fluoropyridin-3-yl)-3,4-dihydroisoquinolin-1(2H)-one]	0.1 to 10	101 to 1000
CC(C)CN(C)C1CCN(c2ccc(-c3cc(-c4ccc5c(c4)CCNC5=O)c(N)nc3F)cc2)C1 (centres unmarked) [I-162, 6-(2-amino-6-fluoro-5-(4-(3-(isobutyl(methyl)amino)pyrrolidin-1-yl)phenyl)pyridin-3-yl)-3,4-dihydroisoquinolin-1(2H)-one]	0.1 to 10	> 1000
Nc1nc(F)c(-c2ccc(N3CCC(F)CC3)cc2)cc1-c1ccc2c(c1)CCNC2=O [I-163, 6-(2-amino-6-fluoro-5-(4-(4-fluoropiperidin-1-yl)phenyl)pyridin-3-yl)-3,4-dihydroisoquinolin-1(2H)-one]	0.1 to 10	> 1000
